This is an account of results in patent publication US20090239841A1, “Diaryl Ureas as CB1 Antagonists” (priority 2004, published 2009).

Like-named read-outs stand apart in the source and are kept apart here.

This test has as its target T1, hCB1 (Homo sapiens, UniProt P21554).
T1 construct: made in house; host or cells: Sf9 insect cells (baculovirus), P2 membranes
The experiment in a line: Agonist-induced GTP binding (GTPγ35S) assay at CB1, Example 8. The settings on record: read-out: IC50. The test is classed as biochemical. The text has this:
As noted above, compounds provided herein are CB1 antagonists. Certain such compounds are non-competitive CB1 antagonists. In addition, or alternatively, certain compounds provided herein display CB1 specificity. CB1 antagonist activity may be confirmed using an agonist-induced GTP binding assay, such as the assay described in Example 8. Such assays employ a CB1-containing cell membrane preparation (e.g., a preparation of membranes of insect cells that recombinantly express CB1) to determine the effect of a test compound on CB1 agonist-induced GTP binding to CB1. Briefly, a first cell membrane preparation comprising CB1 is contacted with: (i) labeled GTP; (ii) a CB1 agonist; and (iii) a test compound to yield a test membrane preparation. Simultaneously, or in either order, a second cell membrane preparation comprising CB1 is contacted with: (i) labeled GTP; and (ii) a CB1 agonist to yield a control membrane preparation. The labeled GTP is preferably GTPγ^35S; a representative CB1 agonist is CP55,940. Such contact is performed under conditions that are suitable for GTP binding to CB1, such as the conditions described in Example 8. The concentrations of labeled GTP and CB1 agonist used are generally concentrations that are sufficient to result in a detectable increase in the amount of labeled GTP bound to the membrane preparation in the presence of CB1 agonist. Such concentrations may be determined by routine experimentation; representative suitable concentrations are provided in Example 8. Generally, a range of test compound concentrations is used (e.g., ranging from 10^−10M to 10^−5M).
After sufficient contact (e.g., incubation) to allow GTP binding to the membrane preparations, a signal that corresponds to (represents) the amount of bound, labeled GTP is detected (typically, unbound labeled GTP is first removed via a washing step). In other words, simultaneously or in either order: (i) a test signal that represents an amount of bound, labeled GTP in the test membrane preparation is detected; and (ii) a control signal that represents an amount of bound, labeled GTP in the control membrane preparation is detected. The nature of the signal detected is determined by the type of label used. For example, if the GTP is radioactively labeled, the signal detected is radioactive decay (e.g., via liquid scintillation spectrometry). The CB1 antagonist activity of the test compound is then determined by comparing the test signal with the control signal.
This assay can also be used to detect partial agonism mediated by antagonist compounds. A compound being analyzed in this assay is referred to herein as a “test compound.” Agonist-stimulated GTP binding activity is measured as follows: Four independent baculoviral stocks (one directing the expression of hCB1 and three directing the expression of each of the three subunits of a heterotrimeric G-protein) are used to infect a culture of Sf9 cells as described in Example 5.
Agonist-stimulated GTP binding on purified membranes (as described in Example 6) is initially assessed using the cannabinoid agonist CP55,940 to ascertain that the receptor/G-protein-alpha-beta-gamma combination(s) yield a functional response as measured by GTP binding.
P2 membranes are resuspended by Dounce homogenization (tight pestle) in GTP binding assay buffer (50 mM Tris pH 7.4, 120 mM NaCl, 5 mM MgCl2, 2 mM EGTA, 0.1% BSA, 0.1 mM bacitracin, 10 KIU/mL aprotinin, 5 μM GDP) and added to reaction tubes at a concentration of 10 μg protein/reaction tube. After adding increasing doses of the agonist CP55,940 at concentrations ranging from 10^−12 M to 10^−6 M, reactions are initiated by the addition of […] GTPγ^35S. In competition experiments, non-radiolabeled test compounds are added to separate assays at concentrations ranging from 10^−10 M to 10^−5 M along with 1 nM CP55,940 to yield a final volume of 0.25 mL. […]

Setting [1] is: Table II, IC50 at CB1, GTP binding with 1 nM CP55,940.
[2] abbreviates: Table I, IC50 at CB1, GTP binding with 1 nM CP55,940.
Where [3] appears, read: IC50 at CB1, determined as described in Example 8.

T1 sequence (P21554 whole entry): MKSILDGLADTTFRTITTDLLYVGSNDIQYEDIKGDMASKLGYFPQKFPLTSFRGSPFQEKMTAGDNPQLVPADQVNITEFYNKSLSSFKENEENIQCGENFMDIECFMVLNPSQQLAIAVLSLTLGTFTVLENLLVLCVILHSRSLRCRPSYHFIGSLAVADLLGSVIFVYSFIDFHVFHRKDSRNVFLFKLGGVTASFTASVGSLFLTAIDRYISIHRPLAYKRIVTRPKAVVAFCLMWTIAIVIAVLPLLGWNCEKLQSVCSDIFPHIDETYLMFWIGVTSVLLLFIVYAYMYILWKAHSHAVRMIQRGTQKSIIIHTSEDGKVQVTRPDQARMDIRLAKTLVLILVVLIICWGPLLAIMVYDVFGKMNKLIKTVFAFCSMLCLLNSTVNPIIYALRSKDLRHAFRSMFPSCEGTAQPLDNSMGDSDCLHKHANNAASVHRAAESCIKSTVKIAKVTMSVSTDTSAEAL

Consider `O=C(Nc1ccc(COc2ccccc2)cc1)Nc1ccc(OC(F)F)cc1` [Compound 102, N-[4-(dif1uoromethoxy)phenyl]-N′-[4-(phenoxymethyl)phenyl]urea], for which the IC50 under setting [1] was under 2 µM.

With `Cc1cccc(NC(=O)Nc2ccc(N3CCCCC3)cc2)c1` [Compound 168, N-(3-methylphenyl)-N′-(4-piperidin-1-ylphenyl)urea], under setting [1], the IC50 is under 2 µM.

Turning to `CCOc1cccc(NC(=O)Nc2cccc(F)c2)c1` [Compound 203, N-(3-ethoxyphenyl)-N′-(3-fluorophenyl)urea], the IC50 under setting [1] is under 2 µM.

Take `O=C(Nc1ccc(OC(F)F)cc1)Nc1cccc(Cl)c1` [Compound 15, N-(3-chlorophenyl)-N′-[4-(difluoromethoxy)phenyl]urea]: the IC50 under setting [2] was under 2 µM.

Take `Cc1cccc(NC(=O)Nc2ccc(OC(C)C)cc2)c1` [Compound 213, N-(4-isopropoxyphenyl)-N′-(3-methylphenyl)urea]: the IC50 under setting [1] was under 2 µM.

As to `CCOC(=O)c1ccc(NC(=O)Nc2ccc(CC)cc2)cc1` [Compound 498, ethyl 4-({[(4-ethylphenyl)amino]carbonyl}amino)benzoate], the IC50 under setting [3] is under 2 µM.

In the case of `COc1ccc(NC(=O)Nc2cccc(OC(F)F)c2)cc1` [Compound 554, 1-[3-(difluoromethoxy)phenyl]-3-(4-methoxyphenyl)urea], under setting [3], the IC50 was under 2 µM.

Consider `CC(=O)c1cccc(NC(=O)Nc2ccc(C)c(Cl)c2)c1` [Compound 458, 1-(3-acetylphenyl)-3-(3-chloro-4-methylphenyl)urea], for which the IC50 under setting [3] was under 2 µM.

For `N#CCc1ccc(NC(=O)Nc2ccc(OC(F)F)cc2)cc1` [Compound 581, 1-[4-(cyanomethyl)phenyl]-3-[4-(difluoromethoxy)phenyl]urea], the IC50 under setting [3] is under 2 µM.

Take `Cc1ccc(NC(=O)Nc2ccc(C)c(F)c2)cc1` [Compound 312, 1-(3-fluoro-4-methylphenyl)-3-(4-methylphenyl)urea]: the IC50 under setting [3] is under 2 µM.

In the case of `O=C(Nc1ccccc1)Nc1ccc(OC(F)F)cc1` [Compound 306, N-[4-(difluoromethoxy)phenyl]-N′-phenylurea], under setting [3], the IC50 was under 2 µM.

`Cc1ccc(NC(=O)Nc2cccc(OC(C)C)c2)cc1` [Compound 298, N-(3-isopropoxyphenyl)-N′-(4-methylphenyl)urea]: the IC50 under setting [3] was under 2 µM.

With `Cc1ccc(NC(=O)Nc2cccc(OC(F)F)c2)cc1C` [Compound 695, 1-[3-(difluoromethoxy)phenyl]-3-(3,4-dimethylphenyl)urea], under setting [3], the IC50 is under 2 µM.

Regarding `CCOC(=O)c1ccc(NC(=O)Nc2ccc(COC)cc2)cc1` [Compound 670, ethyl 4-[({[4-(methymethyl)phenyl]amino}carbonyl)amino]benzoate], under setting [3], the IC50 was under 2 µM.

For `CCOc1cccc(NC(=O)Nc2ccc(Cl)cc2)c1` [Compound 233, N-(4-chlorophenyl)-N′-(3-ethoxyphenyl)urea], the IC50 under setting [1] is under 2 µM.

As to `Cc1ccc(NC(=O)Nc2cccc(C#N)c2)cc1C` [Compound 447, 1-(3-cyanophenyl)-3-(3,4-dimethylphenyl)urea], the IC50 under setting [3] is under 2 µM.

As to `CCCCc1ccc(NC(=O)Nc2ccc(C)cc2)cc1` [Compound 295, N-(4-butylphenyl)-N′-(4-methylphenyl)urea], the concentration for half-maximal inhibition (IC50) under setting [3] is under 2 µM.

As for `CCc1ccccc1NC(=O)Nc1cccc(OC(F)F)c1` [Compound 378, 1-[3-(difluoromethoxy)phenyl]-3-(2-ethylphenyl)urea], the IC50 under setting [3] was under 2 µM.

In the case of `CC(=O)c1ccc(NC(=O)Nc2ccc(Cl)cc2)cc1` [Compound 344, 1-(4-acetylphenyl)-3-(4-chlorophenyl)urea], the half-maximal inhibitory concentration (IC50) under setting [3] is under 2 µM.

Regarding `CCOc1ccc(NC(=O)Nc2ccc(S(C)(=O)=O)cc2)cc1` [Compound 596, 1-(4-ethoxyphenyl)-3-[4-(methylsulfonyl)phenyl]urea], the IC50 under setting [3] was under 2 µM.

For the compound `CCOC(=O)c1ccc(NC(=O)Nc2ccc(OC(C)C)cc2)cc1` [Compound 675, ethyl 4-({[(4-isopropoxyphenyl)amino]carbonyl}amino)benzoate], the IC50 under setting [3] is under 2 µM.

In the case of `Cc1cccc(NC(=O)Nc2ccc(C(=O)OC(C)C)cc2)c1` [Compound 477, isopropyl 4-({[(3-methylphenyl)amino]carbonyl}amino)benzoate], under setting [3], the half-inhibitory concentration (IC50) is under 2 µM.

For the compound `COc1ccc(NC(=O)Nc2ccc(OC(F)F)cc2)cc1OC1CCCC1` [Compound 84, N-[3-(cyclopentyloxy)-4-methoxyphenyl]-N′-[4-(difluoromethoxy)phenyl]urea], the IC50 under setting [1] is under 2 µM.

Regarding `CCc1ccc(NC(=O)Nc2ccc(CO)cc2)cc1` [Compound 28, N-(4-ethylphenyl)-N′-[4-(hydroxymethyl)phenyl]urea], under setting [2], the IC50 is under 2 µM.

In the case of `O=C(Nc1cccc(OC(F)F)c1)Nc1cccc([N+](=O)[O-])c1` [Compound 565, 1-[3-(difluoromethoxy)phenyl]-3-(3-nitrophenyl)urea], the IC50 under setting [3] was under 2 µM.

`CCCc1ccc(NC(=O)Nc2cccc(Cl)c2)cc1` [Compound 335, 1-(3-chlorophenyl)-3-(4-propylphenyl)urea]: under setting [3], the IC50 was under 2 µM.

Regarding `CCOc1cccc(NC(=O)Nc2ccc(C)cc2C)c1` [Compound 703, 1-(2,4-dimethylphenyl)-3-(3-ethoxyphenyl)urea], under setting [3], the IC50 is under 2 µM.

Take `Cc1ccc(NC(=O)Nc2ccc(F)cc2)cc1F` [Compound 430, 1-(3-fluoro-4-methylphenyl)-3-(4-fluorophenyl)urea]: the IC50 under setting [3] is under 2 µM.

For the compound `O=C(Nc1ccc(OC(F)(F)F)cc1)Nc1cccc(OCCO)c1` [Compound 101, N-[3-(2-hydroxyethoxy)phenyl]-N′-[4-(trifluoromethoxy)phenyl]urea], the IC50 under setting [1] was under 2 µM.

Take `N#CCOc1ccc(NC(=O)Nc2cccc(C#N)c2)cc1` [Compound 507, 1-[4-(cyanomethoxy)phenyl]-3-(3-cyanophenyl)urea]: the IC50 under setting [3] is under 2 µM.

For `CC(=O)c1ccc(NC(=O)Nc2cccc(F)c2)cc1` [Compound 188, N-(4-acetylphenyl)-N′-(3-fluorophenyl)urea], under setting [1], the IC50 was under 2 µM.

In the case of `O=C(Nc1cccc(OC(F)F)c1)Nc1cccc(OC(F)F)c1` [Compound 112, N,N′-bis[3-(difluoromethoxy)phenyl]urea], the IC50 under setting [1] is under 2 µM.

Take `CCOc1cccc(NC(=O)Nc2ccc(C(C)=O)cc2)c1` [Compound 263, N-(4-acetylphenyl)-N′-(3-ethoxyphenyl)urea]: under setting [1], the IC50 was under 2 µM.

Consider `CCOC(=O)c1cccc(NC(=O)Nc2cccc(OCCO)c2)c1` [Compound 756, ethyl 3-[({[3-(2-hydroxyethoxy)phenyl]amino}carbonyl)amino] benzoate], for which the IC50 under setting [3] was under 2 µM.

For `COC(=O)c1cccc(NC(=O)Nc2ccc(OC(F)F)cc2)c1` [Compound 679, methyl 3-[({[4-(difluoromethoxy)phenyl]amino}carbonyl)amino]benzoate], the IC50 under setting [3] is under 2 µM.

For `CC(=O)c1cccc(NC(=O)Nc2cccc(OC(C)C)c2)c1` [Compound 277, N-(3-acetylphenyl)-N′-(3-isopropoxyphenyl)urea], under setting [1], the IC50 is under 2 µM.

As for `O=C(Nc1ccc(OC(F)F)cc1)Nc1cccc(OC(F)(F)F)c1` [Compound 95, N-[4-(difluoromethoxy)phenyl]-N′-[3-(trifluoromethoxy)phenyl]urea], the IC50 under setting [1] is under 2 µM.

Regarding `CC(=O)c1ccc(NC(=O)Nc2cccc(F)c2)cc1` [Compound 339, 1-(4-acetylphenyl)-3-(3-fluorophenyl)urea], the IC50 under setting [3] was under 2 µM.
